Test results: the NIST ThermoML archive (doi:10.1021/je050416y)
± gives the expanded uncertainty stated by the source.

Key:
[1] = 101 kPa, Liquid; for mass density: Vibrating tube method
[2] = xn = mol fraction of the nth substance listed; conditions: 101 kPa, Liquid, x2 = 0; for mass density: Vibrating tube method

Which kinematic viscosity ([1]; 293.15 K) does the source give for `CC(C)CCO` [3-methylbutan-1-ol] here?
The kinematic viscosity was 5e-06 ± 2.2e-07 m2/s.

And the mass density ([1]; 293.15 K)?
The mass density was 808.3 ± 1 kg/m3.

And the kinematic viscosity ([1]; 298.15 K)?
Its kinematic viscosity is 4.35e-06 ± 1.9e-07 m2/s.

And the mass density ([1]; 298.15 K)?
The mass density was 804.6 ± 1 kg/m3.

And the kinematic viscosity ([1]; 303.15 K)?
The kinematic viscosity was 3.81e-06 ± 1.7e-07 m2/s.

What about the mass density ([1]; 303.15 K) of the same compound?
The mass density was 800.8 ± 1 kg/m3.

What about the kinematic viscosity ([1]; 308.15 K) of the same compound?
The kinematic viscosity was 3.33e-06 ± 1.5e-07 m2/s.

And the mass density ([1]; 308.15 K)?
The mass density was 797.1 ± 1 kg/m3.

And the kinematic viscosity ([1]; 313.15 K)?
Its kinematic viscosity is 2.94e-06 ± 1.3e-07 m2/s.

And the mass density ([1]; 313.15 K)?
Its mass density is 793.2 ± 1 kg/m3.

What about the kinematic viscosity ([1]; 318.15 K) of the same compound?
The kinematic viscosity was 2.59e-06 ± 1.2e-07 m2/s.

What about the mass density ([1]; 318.15 K) of the same compound?
Its mass density is 789.5 ± 1 kg/m3.

What about the kinematic viscosity ([1]; 323.15 K) of the same compound?
The kinematic viscosity was 2.29e-06 ± 1e-07 m2/s.

And the mass density ([1]; 323.15 K)?
Its mass density is 785.7 ± 1 kg/m3.

What does the source list for `CCC(C)CO` (stereo not drawn) [2-methyl-1-butanol]?
kinematic viscosity ([1]; 293.15 K): 6.11e-06 ± 2.5e-07 m2/s; mass density ([1]; 293.15 K): 817.6 ± 1 kg/m3; kinematic viscosity ([1]; 298.15 K): 5.34e-06 ± 2.3e-07 m2/s; mass density ([1]; 298.15 K): 814.1 ± 1 kg/m3; kinematic viscosity ([1]; 303.15 K): 4.69e-06 ± 2e-07 m2/s; mass density ([1]; 303.15 K): 810.5 ± 1 kg/m3; kinematic viscosity ([1]; 308.15 K): 4.08e-06 ± 1.8e-07 m2/s; mass density ([1]; 308.15 K): 807.1 ± 1 kg/m3; kinematic viscosity ([1]; 313.15 K): 3.54e-06 ± 1.6e-07 m2/s; mass density ([1]; 313.15 K): 803.6 ± 1 kg/m3; kinematic viscosity ([1]; 318.15 K): 3.09e-06 ± 1.4e-07 m2/s; mass density ([1]; 318.15 K): 800.1 ± 1 kg/m3; kinematic viscosity ([1]; 323.15 K): 2.72e-06 ± 1.2e-07 m2/s; mass density ([1]; 323.15 K): 796.6 ± 1 kg/m3

What does the source list for `CCO` [ethanol]?
kinematic viscosity ([1]; 293.15 K): 1.52e-06 ± 7.2e-08 m2/s; mass density ([1]; 293.15 K): 789.7 ± 1 kg/m3; kinematic viscosity ([1]; 298.15 K): 1.39e-06 ± 6.6e-08 m2/s; mass density ([1]; 298.15 K): 785.3 ± 1 kg/m3; kinematic viscosity ([1]; 303.15 K): 1.23e-06 ± 5.9e-08 m2/s; mass density ([1]; 303.15 K): 780.9 ± 1 kg/m3; kinematic viscosity ([1]; 308.15 K): 1.13e-06 ± 5.5e-08 m2/s; mass density ([1]; 308.15 K): 776.5 ± 1 kg/m3; kinematic viscosity ([1]; 313.15 K): 1.02e-06 ± 5.1e-08 m2/s; mass density ([1]; 313.15 K): 772.2 ± 1 kg/m3; kinematic viscosity ([1]; 318.15 K): 9.4e-07 ± 4.7e-08 m2/s; mass density ([1]; 318.15 K): 767.9 ± 1 kg/m3; kinematic viscosity ([1]; 323.15 K): 8.28e-07 ± 4.2e-08 m2/s; mass density ([1]; 323.15 K): 763.5 ± 1 kg/m3

Which results are given for `CCO` [ethanol] + CCC(C)CO?
mass density ([2]; 293.15 K): 789.7 ± 1 kg/m3; kinematic viscosity ([2]; 293.15 K): 1.52e-06 ± 7.2e-08 m2/s; mass density ([2]; 298.15 K): 785.3 ± 1 kg/m3; kinematic viscosity ([2]; 298.15 K): 1.39e-06 ± 6.6e-08 m2/s; mass density ([2]; 303.15 K): 780.9 ± 1 kg/m3; kinematic viscosity ([2]; 303.15 K): 1.23e-06 ± 5.9e-08 m2/s; mass density ([2]; 308.15 K): 776.5 ± 1 kg/m3; kinematic viscosity ([2]; 308.15 K): 1.13e-06 ± 5.5e-08 m2/s; mass density ([2]; 313.15 K): 772.2 ± 1 kg/m3; kinematic viscosity ([2]; 313.15 K): 1.02e-06 ± 5.1e-08 m2/s; mass density ([2]; 318.15 K): 767.9 ± 1 kg/m3; kinematic viscosity ([2]; 318.15 K): 9.4e-07 ± 4.7e-08 m2/s; mass density ([2]; 323.15 K): 763.5 ± 1 kg/m3; kinematic viscosity ([2]; 323.15 K): 8.28e-07 ± 4.2e-08 m2/s

Which results are given for `CCO` [ethanol] + CC(C)CCO?
mass density ([2]; 293.15 K): 789.7 ± 1 kg/m3; kinematic viscosity ([2]; 293.15 K): 1.52e-06 ± 7.2e-08 m2/s; mass density ([2]; 298.15 K): 785.3 ± 1 kg/m3; kinematic viscosity ([2]; 298.15 K): 1.39e-06 ± 6.6e-08 m2/s; mass density ([2]; 303.15 K): 780.9 ± 1 kg/m3; kinematic viscosity ([2]; 303.15 K): 1.23e-06 ± 5.9e-08 m2/s; mass density ([2]; 308.15 K): 776.5 ± 1 kg/m3; kinematic viscosity ([2]; 308.15 K): 1.13e-06 ± 5.5e-08 m2/s; mass density ([2]; 313.15 K): 772.2 ± 1 kg/m3; kinematic viscosity ([2]; 313.15 K): 1.02e-06 ± 5.1e-08 m2/s; mass density ([2]; 318.15 K): 767.9 ± 1 kg/m3; kinematic viscosity ([2]; 318.15 K): 9.4e-07 ± 4.7e-08 m2/s; mass density ([2]; 323.15 K): 763.5 ± 1 kg/m3; kinematic viscosity ([2]; 323.15 K): 8.28e-07 ± 4.2e-08 m2/s

Which results are given for `CCO` [ethanol] + CCC(C)(C)O?
mass density ([2]; 293.15 K): 789.7 ± 1 kg/m3; kinematic viscosity ([2]; 293.15 K): 1.52e-06 ± 7.2e-08 m2/s; mass density ([2]; 298.15 K): 785.3 ± 1 kg/m3; kinematic viscosity ([2]; 298.15 K): 1.39e-06 ± 6.6e-08 m2/s; mass density ([2]; 303.15 K): 780.9 ± 1 kg/m3; kinematic viscosity ([2]; 303.15 K): 1.23e-06 ± 5.9e-08 m2/s; mass density ([2]; 308.15 K): 776.5 ± 1 kg/m3; kinematic viscosity ([2]; 308.15 K): 1.13e-06 ± 5.5e-08 m2/s; mass density ([2]; 313.15 K): 772.2 ± 1 kg/m3; kinematic viscosity ([2]; 313.15 K): 1.02e-06 ± 5.1e-08 m2/s; mass density ([2]; 318.15 K): 767.9 ± 1 kg/m3; kinematic viscosity ([2]; 318.15 K): 9.4e-07 ± 4.7e-08 m2/s; mass density ([2]; 323.15 K): 763.5 ± 1 kg/m3; kinematic viscosity ([2]; 323.15 K): 8.28e-07 ± 4.2e-08 m2/s

What does the source list for `CCC(C)(C)O` [2-methylbutan-2-ol]?
kinematic viscosity ([1]; 293.15 K): 5.11e-06 ± 2.2e-07 m2/s; mass density ([1]; 293.15 K): 813.9 ± 1 kg/m3; kinematic viscosity ([1]; 298.15 K): 4.47e-06 ± 2e-07 m2/s; mass density ([1]; 298.15 K): 810.5 ± 1 kg/m3; kinematic viscosity ([1]; 303.15 K): 3.91e-06 ± 1.7e-07 m2/s; mass density ([1]; 303.15 K): 807 ± 1 kg/m3; kinematic viscosity ([1]; 308.15 K): 3.39e-06 ± 1.5e-07 m2/s; mass density ([1]; 308.15 K): 803.5 ± 1 kg/m3; kinematic viscosity ([1]; 313.15 K): 2.91e-06 ± 1.3e-07 m2/s; mass density ([1]; 313.15 K): 800 ± 1 kg/m3; kinematic viscosity ([1]; 318.15 K): 2.52e-06 ± 1.1e-07 m2/s; mass density ([1]; 318.15 K): 796.6 ± 1 kg/m3; kinematic viscosity ([1]; 323.15 K): 2.09e-06 ± 9.6e-08 m2/s; mass density ([1]; 323.15 K): 793.3 ± 1 kg/m3
